Test results from patent US20250312333A1, “COMPOSITION CONTAINING ARIPIPRAZOLE AS ACTIVE INGREDIENT FOR ENHANCING ANTICANCER EFFECT OF KRAS G12C GENETIC MUTATION THERAPEUTIC AGENT” (KOREA INSTITUTE OF RADIOLOGICAL & MEDICAL SCIENCES, priority 2022, published 2025).

Assays:
Assay type in all cases: cell-based
[1] = tested on: NCI-H1373 cells; assay: PARP cleavage (apoptosis) by Western blot in NCI-H1373 cells; conditions: co-treatment with the therapeutic agent for KRAS G12C genetic mutation vs either agent alone, twenty four hours (FIG. 4)
Description: To identify the effect of aripiprazole on apoptosis induced by the therapeutic agent for KRAS G12C genetic mutation in cancer cells, NCI-H1373 cells were treated with aripiprazole alone or in combination with the therapeutic agent for KRAS G12C genetic mutation. Twenty four hours later, proteins were extracted from cells after washing with PBS, and the degree of PARP cleavage was checked via Western blot.

[2] = tested on: NOXA protein; assay: NOXA protein expression by Western blot in NCI-H1373 cells; conditions: aripiprazole treatment, eight hours, Western blot (FIG. 1)
Description: (§1) To identify an effect of aripiprazole on the expression of a NOXA protein in cancer cells, MIA PaCa-2 cells and NCI-H1373 cells were treated with aripiprazole. Eight hours later, proteins were extracted from cells after washing with PBS, and a level of NOXA expression was checked via Western blot.

[3] = tested on: NOXA protein; assay: NOXA protein expression by Western blot in MIA PaCa-2 cells; conditions: aripiprazole treatment, eight hours, Western blot (FIG. 1)
Description: as §1

[4] = tested on: MIA PaCa-2 cells; assay: PARP cleavage (apoptosis) by Western blot in MIA PaCa-2 cells; conditions: co-treatment with the therapeutic agent for KRAS G12C genetic mutation vs either agent alone, twenty four hours (FIG. 3)
Description: To identify the effect of aripiprazole on apoptosis induced by the therapeutic agent for KRAS G12C genetic mutation in cancer cells, MIA PaCa-2 cells were treated with aripiprazole alone or in combination with the therapeutic agent for KRAS G12C genetic mutation. Twenty four hours later, proteins were extracted from cells after washing with PBS, and the degree of PARP cleavage was checked via Western blot.

## O=C1CCc2ccc(OCCCCN3CCN(c4cccc(Cl)c4Cl)CC3)cc2N1 [aripiprazole]
[1]
  degree of PARP cleavage: superior effect of inducing PARP cleavage
[2]
  expression of NOXA protein: increased
[3]
  expression of NOXA protein: increased
[4]
  degree of PARP cleavage: superior effect of inducing PARP cleavage
